From patent US8143259B2, “Cold menthol receptor antagonists” (Janssen Pharmaceutica, NV, priority 2008, dated 2012) come the findings set out here.

The assay addresses T1, canine TRPM8 (Canis lupus familiaris, UniProt Q1A7N1).
T1 construct: expressed in transfected cells
The assay can be described thus: In Vitro Canine TRPM8 Functional Assay (Ca2+ fluorescence, icilin activation). In kind it is cell-based. The following applies: for inhibition at 0.5 µM: HEK293, 0.5 μM compound; for IC50: HEK293 cells stably expressing canine TRPM8, icilin activation, Ca2+ fluorescence; for % Inh @ 0.5 μM: 0.5 μM compound; for inhibition at 0.2 µM: HEK293, 0.2 μM compound; for % Inh @ 0.2 μM: 0.2 μM compound. The method, boiled down:
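HEK293 cells stably expressing canine TRPM8, loaded with Calcium 3 dye; compounds added 5 min before icilin at a concentration giving ~80% maximal response. Peak icilin-evoked Ca2+ fluorescence, basal-subtracted and normalised to maximal response, fitted by sigmoidal nonlinear regression; quadruplicate wells.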

[1] abbreviates: canine TRPM8 HEK293, icilin, 0.2 µM.
Where [2] appears, read: canine TRPM8 HEK293, icilin, 0.5 µM.

Each structure is given as a SMILES string. Several values for one entry are separate records, joined by “and”; a condition that tells them apart may be missing. Equal entries are not always repeated.

T1 sequence (Q1A7N1 1-1104): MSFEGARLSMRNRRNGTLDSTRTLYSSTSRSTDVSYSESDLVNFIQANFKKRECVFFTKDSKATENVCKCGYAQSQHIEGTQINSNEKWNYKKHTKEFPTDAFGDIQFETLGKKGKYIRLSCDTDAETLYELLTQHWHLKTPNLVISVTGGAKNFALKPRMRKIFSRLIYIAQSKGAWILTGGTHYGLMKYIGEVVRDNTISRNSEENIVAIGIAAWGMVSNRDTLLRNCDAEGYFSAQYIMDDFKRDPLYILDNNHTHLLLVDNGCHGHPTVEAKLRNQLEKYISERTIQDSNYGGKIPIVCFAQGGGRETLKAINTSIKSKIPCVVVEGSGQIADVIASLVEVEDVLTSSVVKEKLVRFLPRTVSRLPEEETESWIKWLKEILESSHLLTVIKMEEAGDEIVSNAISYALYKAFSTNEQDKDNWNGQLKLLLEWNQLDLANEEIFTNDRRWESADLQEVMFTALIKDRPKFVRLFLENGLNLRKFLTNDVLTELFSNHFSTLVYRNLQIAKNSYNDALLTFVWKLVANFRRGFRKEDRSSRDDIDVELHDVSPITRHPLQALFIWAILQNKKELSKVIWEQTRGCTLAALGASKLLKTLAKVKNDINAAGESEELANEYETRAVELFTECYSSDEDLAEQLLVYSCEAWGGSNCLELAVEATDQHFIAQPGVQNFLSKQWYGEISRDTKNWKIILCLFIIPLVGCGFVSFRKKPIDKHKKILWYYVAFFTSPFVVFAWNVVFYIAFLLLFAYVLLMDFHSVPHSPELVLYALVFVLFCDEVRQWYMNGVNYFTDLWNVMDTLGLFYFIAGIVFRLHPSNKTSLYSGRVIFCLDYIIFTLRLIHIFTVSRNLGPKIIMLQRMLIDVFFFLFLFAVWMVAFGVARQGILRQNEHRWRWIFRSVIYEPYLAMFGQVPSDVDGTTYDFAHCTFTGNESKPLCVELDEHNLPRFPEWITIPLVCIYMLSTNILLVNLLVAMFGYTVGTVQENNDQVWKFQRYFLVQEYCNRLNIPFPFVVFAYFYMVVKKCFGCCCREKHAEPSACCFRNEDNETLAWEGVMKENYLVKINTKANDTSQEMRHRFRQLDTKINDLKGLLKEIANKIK

Compound `O=C(C(CNc1ccccc1F)c1ccc(C(F)(F)F)cc1)N1Cc2ccccc2C1` (centres unmarked) [Cpd 106] came in with an IC50 of 170 nM. In addition, where the note is “canine TRPM8 HEK293, icilin”, the inhibition at 0.5 µM stood at 98%.

`COc1ccc(NC(C(=O)N2Cc3cccc(F)c3C2)c2ccc(Cl)cc2)cc1` (centres unmarked) [Cpd 141] gave an IC50 of 188 nM. Further, under “canine TRPM8 HEK293, icilin”, the inhibition at 0.5 µM was found to be 79%. For `O=C(C(CNc1ccccc1)c1ccc(C(F)(F)F)cc1)N1CCc2ccccc21` (racemic) [Cpd 40], the midpoint of inhibition, the IC50, lay at 233 nM. Besides, the “% Inh @ 0.5 μM” value (canine TRPM8 HEK293, icilin) was 90.495%. `CC(C)(C)c1ccc(C(Nc2ccccc2)C(=O)N2CCCC2c2ccccc2)cc1` (centres unmarked) [Cpd 12] registered an IC50 of 60.6 nM. For the same compound, the inhibition at 1 µM (HEK293, 1 μM compound, canine TRPM8 HEK293, icilin) turned out to be 103%.

As to `COC(=O)[C@@H]1CC[C@H](c2ccccc2)N1C(=O)C(Nc1c(F)cccc1F)c1ccc(Br)cc1` (single isomer, unassigned) [Cpd 204], the inhibition at 0.2 µM (canine TRPM8 HEK293, icilin) came out at 47%. The compound `O=C(C(c1ccc(C(F)(F)F)cc1)N1CCc2ccccc21)N1CCCC1c1ccccc1` (centres unmarked) [Cpd 227] registered an IC50 of 30.6 nM.

Consider `O=C(C(Nc1ccccc1)c1ccc(C(F)(F)F)cc1)N1CCCC1c1cc2ccccc2[nH]1` (centres unmarked) [Cpd 25], for which the IC50 amounted to 141 nM. Further, the inhibition at 0.5 µM (canine TRPM8 HEK293, icilin) was determined as 102%. For the compound `CC(Nc1ccccc1)(C(=O)N1CCCC1c1ccccc1Cl)c1ccc(C(F)(F)F)cc1` (centres unmarked) [Cpd 80, 1-[2-(2-Chloro-phenyl)-pyrrolidin-1-yl]-2-phenylamino-2-(4-trifluoromethyl-phenyl)-propan-1-one], the inhibition at 0.5 µM (canine TRPM8 HEK293, icilin) was 69%. On the same count and under the same terms, for `O=C(NN1CCCC1c1ccccc1Cl)C(Nc1ccccc1)c1ccc(C(F)(F)F)cc1` (centres unmarked) [Cpd 63, N-[2-(2-Chloro-phenyl)-pyrrolidin-1-yl]-2-phenylamino-2-(4-trifluoromethyl-phenyl)-acetamide] the value was 36%. As for `Cc1ccccc1C1CCCN1C(=O)C(Nc1ccccc1)c1ccc(C(F)(F)F)cc1` (centres unmarked) [Cpd 32], the IC50 stood at 31.2 nM. The inhibition at 0.5 µM (canine TRPM8 HEK293, icilin) is 104%. `O=C(C(Nc1ccccc1)c1ccccc1Cl)N1CCCC1c1ccccc1Cl` (mixture of isomers) [Cpd 362]: the “% Inh @ 0.5 μM” value (canine TRPM8 HEK293, icilin) is 21.91%. The compound `O=C(C(Nc1ccccc1F)c1cc2cccnc2s1)N1CCCC1c1ccccc1F` (racemic) [Cpd 320] showed an IC50 of 25 nM. The inhibition at 0.2 µM (canine TRPM8 HEK293, icilin) came out at 87%. In the case of `O=C(C(Nc1ccccc1)c1cccc(C(F)(F)F)c1)N1CCCC1c1ccccc1Cl` (centres unmarked) [Cpd 97], half-maximal inhibition (IC50) required 89 nM. Further, where the note is “canine TRPM8 HEK293, icilin”, the inhibition at 0.5 µM stood at 100%. On to `Cc1cccc(C)c1NC(C(=O)N1CCc2ccccc21)c1ccc(C(F)(F)F)cc1` (racemic) [Cpd 35], for which the “% Inh @ 0.5 μM” value (canine TRPM8 HEK293, icilin) is on record as 72.417%. Compound `O=C(C(Nc1ccccc1F)c1cc2ccccc2s1)N1CCCC1c1ccccn1` (centres unmarked) [Cpd 321] displayed an IC50 of 8 nM. For the same compound, the inhibition at 0.2 µM (canine TRPM8 HEK293, icilin) came out at 94%.

Regarding `O=C(C(Oc1ccccc1F)c1ccc(C(F)(F)F)cc1)N1CCCC1c1ccccc1F` (centres unmarked) [Cpd 263, 2-(2-Fluoro-phenoxy)-1-[2-(2-fluoro-phenyl)-pyrrolidin-1-yl]-2-(4-trifluoromethyl-phenyl)-ethanone], the IC50 is 110 nM. The inhibition at 0.2 µM (canine TRPM8 HEK293, icilin) is 84%.

Regarding `O=C(C(Nc1ccccc1F)c1ccc(Cl)cc1)N1CCCC1c1ccccc1Cl` (centres unmarked) [Cpd 110], the IC50 was 55.4 nM. Further, the inhibition at 0.5 µM (canine TRPM8 HEK293, icilin) was 98%. Take `O=C(C(Nc1ccccc1F)c1ccc(C(F)(F)F)cc1)N1CCCC1c1ccccc1Cl` (racemic) [Cpd 68]: the IC50 was 7 nM and 12 nM and 13 nM. Moreover, for the setting “canine TRPM8 HEK293, icilin”, the inhibition at 0.2 µM worked out at 89% and the inhibition at 0.5 µM was found to be 103%. With `COc1ccccc1C1CCCN1C(=O)C(Nc1ccccc1F)c1ccc(Br)cc1` (racemic) [Cpd 90], inhibition was half-maximal at 7 nM (IC50). Besides, the inhibition at 0.5 µM (canine TRPM8 HEK293, icilin) was 97%. As to `O=C(C(Nc1ccccc1F)c1ccc2ncccc2c1)N1CCCC1c1ccccc1F` (single isomer, unassigned) [Cpd 247], the midpoint of inhibition, the IC50, lay at 8.4 nM. Besides, the inhibition at 0.2 µM (canine TRPM8 HEK293, icilin) was 93%. For the compound `O=C(C(Nc1ccccc1)c1ccc(Cl)cc1)N1CCc2ccccc2C1` (centres unmarked) [Cpd 88], the IC50 was found to be 96 nM. For the same compound, the inhibition at 0.5 µM (canine TRPM8 HEK293, icilin) amounted to 99%. Consider `Cn1cc(C(Nc2ccccc2F)C(=O)N2CCCC2c2ccccc2F)c2ccccc21` (racemic) [Cpd 250], for which, for the setting “canine TRPM8 HEK293, icilin”, the “% Inh @ 0.2 μM” value worked out at 25%. On to `O=C(C(c1ccc(C(F)(F)F)cc1)N1CCCc2ccccc21)N1Cc2ccccc2C1` (centres unmarked) [Cpd 363], for which the IC50 came to 134 nM. The inhibition at 0.2 µM (canine TRPM8 HEK293, icilin) was 72%. The matching figures for `COC(=O)c1ccc(C2CCCN2C(=O)C(Nc2ccccc2F)c2ccc3c(c2)CCO3)cc1` (centres unmarked) [Cpd 351]: 92 nM and 83%. In turn, `O=C(C(Nc1ccccc1F)c1ccc(Cl)cc1)N1CCC[C@H]1c1ccccc1F` (mixture of isomers) [Cpd 156] had an IC50 of 9 nM. Also, where the note is “canine TRPM8 HEK293, icilin”, the inhibition at 0.5 µM came to 92%.

With `O=C(C(Nc1c(F)cccc1F)c1ccc(Cl)cc1)N1Cc2ccccc2C1` (centres unmarked) [Cpd 147], the IC50 came out at 132 nM. Besides, for the setting “canine TRPM8 HEK293, icilin”, the inhibition at 0.5 µM is 93%.

As for `O=C(C(Nc1ccccc1F)c1ccc(-c2ccccc2)nc1)N1CCC[C@H]1c1ccccc1F` (mixture of isomers) [Cpd 306], the IC50 turned out to be 7 nM. Besides, the “% Inh @ 0.2 μM” value under setting [1] came to 102%. The inhibition at 0.2 µM (canine TRPM8 HEK293, icilin) is 101%. `O=C(C(Nc1ccccc1F)c1cc2ccccc2s1)N1CCCC1c1ccncc1` (single isomer, unassigned) [Cpd 323] had an IC50 of 24 nM. Also, under setting [1], the “% Inh @ 0.2 μM” value is listed as 95%. The compound `CN(c1ccccc1F)C(C(=O)N1Cc2ccccc2C1)c1ccc(C(F)(F)F)cc1` (centres unmarked) [Cpd 229] had an IC50 of 44.4 nM. In turn, `O=C(C(Nc1ccccc1F)c1ccc(-c2cccnc2)cc1)N1CCCC1c1ccccc1Cl` (centres unmarked) [Cpd 343] had an IC50 of 17 nM. Also, the inhibition at 0.2 µM (canine TRPM8 HEK293, icilin) was determined as 101%.

On to `COC(=O)c1ccc(C2CCCN2C(=O)C(Nc2ccccc2F)c2cc3ccccc3s2)cc1` (centres unmarked) [Cpd 325], for which the midpoint of inhibition, the IC50, lay at 62 nM. Further, the inhibition at 0.2 µM (canine TRPM8 HEK293, icilin) amounted to 101%. Compound `COC(=O)C1CCC(c2ccccc2)N1C(=O)C(Nc1ccccc1)c1ccc(Cl)cc1` (single isomer, unassigned) [Cpd 206] gave an IC50 of 76 nM. In addition, under “canine TRPM8 HEK293, icilin”, the inhibition at 0.2 µM came out at 92%. For `O=C([C@@H](CNc1ccccc1)c1ccc(C(F)(F)F)cc1)N1CCC[C@@H]1c1ccccc1` (relative stereo) [Cpd 130, 3-Phenylamino-1-[(2RS*)2-phenyl-pyrrolidin-1-yl]-(2RS*)-2-(4-trifluoromethyl-phenyl)-propan-1-one], the IC50 was determined as 36.2 nM. The “% Inh @ 0.5 μM” value (canine TRPM8 HEK293, icilin) is recorded as 101%. The compound `O=C(C(Nc1ccccc1)c1ccc(C(F)(F)F)cc1)N1CCCC1c1ccccc1F` (single isomer, unassigned) [Cpd 47] came in with an IC50 of 200 nM. The “% Inh @ 0.5 μM” value under setting [2] came out at 99.791%. Turning to `O=C(C(Nc1ccccc1)c1ccccn1)N1CCCC1c1ccccc1F` (centres unmarked) [Cpd 217], the “% Inh @ 0.2 μM” value under setting [1] was 26%. In the case of `COC(=O)c1ccc(C2CCCN2C(=O)C(Nc2ccccc2F)c2ccc(C(F)(F)F)cc2)cc1` (centres unmarked) [Cpd 220], the IC50 was 48 nM. Also, the inhibition at 0.2 µM (canine TRPM8 HEK293, icilin) was determined as 96%. `O=C(C(Nc1ccccc1)c1ccc(C(F)(F)F)cc1)N1CCCC1c1ccccc1C(F)(F)F` (single isomer, unassigned) [Cpd 31]: the IC50 is 48.5 nM. For the same compound, the “% Inh @ 0.5 μM” value under setting [2] is listed as 104.03%. `O=C(C(Nc1cc(F)ccc1F)c1ccc(Cl)cc1)N1CCCC1c1ccccc1` (centres unmarked) [Cpd 173] displayed an IC50 of 35.6 nM. For the setting “canine TRPM8 HEK293, icilin”, the inhibition at 0.2 µM was 103%. With `COc1ccc(C(Nc2ccccc2)C(=O)N2Cc3ccccc3C2)cc1` (racemic) [Cpd 73], where the note is “canine TRPM8 HEK293, icilin”, the “% Inh @ 0.5 μM” value was 33%. `O=C(C(Nc1ccccc1F)c1ccc(C(F)(F)F)cc1)N1CCCC1c1ccc(F)cc1` (centres unmarked) [Cpd 135]: half-maximal inhibition (IC50) required 37.4 nM. Besides, the inhibition at 0.5 µM (canine TRPM8 HEK293, icilin) stood at 100%. Take `COC(=O)c1cccc([C@@H]2CCCN2C(=O)C(Nc2ccccc2F)c2ccc(C(F)(F)F)cc2)c1` (mixture of isomers) [Cpd 347]: the IC50 worked out at 40 nM. Also, under “canine TRPM8 HEK293, icilin”, the inhibition at 0.2 µM was 99%. The like results for `COC(=O)c1cccc(NC(C(=O)N2CCCC2c2ccccc2F)c2ccc3c(c2)CCO3)c1` (centres unmarked) [Cpd 311] were, in that order, 51 nM and 99%. With `COc1ccc(NC(C(=O)N2CCCC2c2ccccc2OC)c2ccc(Cl)cc2)cc1` (centres unmarked) [Cpd 138], the IC50 worked out at 119 nM. Besides, the inhibition at 0.5 µM (canine TRPM8 HEK293, icilin) stood at 95%. With `O=C(C(Nc1ccccc1F)c1ccc(-c2ccccn2)cc1)N1CCCC1c1ccccc1F` (single isomer, unassigned) [Cpd 296], the IC50 was 4 nM and 9 nM. Moreover, the “% Inh @ 0.2 μM” value under setting [1] was found to be 96%. Besides, under “canine TRPM8 HEK293, icilin”, the inhibition at 0.2 µM was 88%.

Turning to `O=C(C(Nc1ccccc1F)c1ccc(Br)cc1)N1CCCC1c1ccccc1F` (single isomer, unassigned) [Cpd 160], the IC50 was 39 nM and 13 nM. For the same compound, under setting [1], the “% Inh @ 0.2 μM” value is on record as 87%. Also, the “% Inh @ 0.5 μM” value under setting [2] stood at 95%.

On to `O=C(C(Nc1cc(F)ccc1F)c1ccc(Cl)cc1)N1Cc2ccccc2C1` (centres unmarked) [Cpd 174], for which inhibition was half-maximal at 45.2 nM (IC50). Further, for the setting “canine TRPM8 HEK293, icilin”, the inhibition at 0.2 µM worked out at 98%. Compound `O=C(C(Nc1cccc(F)c1F)c1ccc(Cl)cc1)N1CCCC1c1ccccc1F` (single isomer, unassigned) [Cpd 163] had an IC50 of 145 nM. Further, the inhibition at 0.5 µM (canine TRPM8 HEK293, icilin) came out at 94%.

As for `COC(=O)C1CCC(c2ccccc2)N1C(=O)C(Nc1ccccc1F)c1ccc(Br)cc1` (centres unmarked) [Cpd 195], the “% Inh @ 0.2 μM” value under setting [1] amounted to 32%.

`O=C(C(Nc1ccccc1)c1ccc(Br)cc1)N1Cc2ccccc2C1` (centres unmarked) [Cpd 71] returned an IC50 of 74 nM. Further, where the note is “canine TRPM8 HEK293, icilin”, the inhibition at 0.5 µM stood at 91%. With `O=C(C(Nc1ccccc1F)c1cnc2ccccc2c1)N1CCCC1c1cccnc1` (single isomer, unassigned) [Cpd 298], the “% Inh @ 0.2 μM” value (canine TRPM8 HEK293, icilin) was 22%.
